Results from patent US20130023494A1, “MODULATORS OF THE GPR119 RECEPTOR AND THE TREATMENT OF DISORDERS RELATED THERETO” (ARENA PHARMACEUTICALS, INC., priority 2010, published 2013).

Tests used:
male diabetic ZDF rats = assay: Oral glucose tolerance test (oGTT) in male diabetic ZDF rats; format: in vivo, rat; settings: for % Inhibition of Glucose Excursion (dose: mg/kg): ZDF rats, glucose excursion AUC reduction relative to vehicle
Protocol: FIGS. 1 to 4, 16 and 17 show results of three independent experiments with three representative GPR119 agonists of the present invention, namely, Compound 28, Compound 62, and Compound 83. In each experiment, male ZDF rats (approximately 10-week old) were fasted for 18 hours and randomly grouped (n=6) to receive a GPR119 agonist (Compound 28, Compound 62, or Compound 83) at indicated doses (mg/kg body weight). Compounds were delivered orally via a gavage needle (p.o., volume 4 mL/kg) 1 h prior to glucose bolus (3 g/kg) (time=−60 min in FIGS. 1, 3, and 16), with a separate group receiving vehicle (20% hydroxypropyl-beta-cyclodextrin) as control in each experiment. At time 0 min the glucose bolus was administered. Levels of blood glucose were assessed using a glucometer (One-Touch Ultra™, LifeScan) at time −60 min (prior to compound administration), at 0 min (time when glucose bolus was given), and at 30, 60, 90, 120 min post glucose bolus. The plasma glucose excursion curves are given in FIGS. 1, 3, and 16, and glucose excursion AUC (area under the curve) reductions in compound treated animals relative to vehicle control are given in FIGS. 2, 4, and 17, and in Table 1.

male 129SVE mice = assay: Oral glucose tolerance test (oGTT) in male 129SVE mice; format: in vivo, mouse; settings: for % Inhibition of Glucose Excursion: AUC reduction relative to vehicle
Protocol: Male 129SVE mice (approximately 8-week old) were fasted for 18 h and randomly grouped (n=6) to receive a GPR119 agonist (Compound 28) at 1, 3, or 10 mg/kg (mg/kg body weight). The compound was delivered orally via a gavage needle (p.o., volume 4 mL/kg) 30 minutes prior to glucose bolus (3 g/kg) (time=−30 min in FIG. 5), with a separate group receiving vehicle (20% hydroxypropyl-beta-cyclodextrin) as control. At time 0 min the glucose bolus was administered. Levels of blood glucose were assessed using a glucometer (One-Touch Ultra™, LifeScan) at time −30 minute (prior to compound administration), at 0 min (at time when glucose bolus was given), and at 20, 40, 60, 120 minutes post glucose bolus. The plasma glucose excursion curve is given in FIG. 5, and glucose excursion AUC (area under the curve) reduction in compound treated animals relative to vehicle control is given in FIG. 6, and in Table 2.

incretin hormone GIP = assay: Incretin hormone GIP release in male 129SVE mice (Total GIP ELISA); format: in vivo, mouse; settings: 10 mpk p.o., plasma sample after 45 min, PET vehicle 72.5
Protocol: Male 129SVE mice (approximately 8-week old) were fasted for 18 h and randomly grouped (n=6) to receive a GPR119 agonist (Compound 28, Compound 73, Compound 71, Compound 62, and Compound 30) at 10 mpk dose (mg/kg body weight). Compounds were delivered orally via a gavage needle (p.o., volume 4 mL/kg), and after 45 min a blood sample was collected to determine plasma total GIP levels. A separate group received vehicle (PET: 80% PEG:10% Ethanol:10% Tween80™) as control. Plasma GIP levels were determined using a Total GIP ELISA kit from Millipore.

GPR119 = settings: combined administration with a DPP-IV inhibitor, compared with either agent alone; cited from earlier work
[1] = tested on: human patients suffering with type 2 diabetes; settings: oral administration, human patients with type 2 diabetes; cited from earlier work
humans = settings: cited from earlier work

## CC(C)OC(=O)N1CCC(O[C@H]2CC[C@H](Oc3cnc(S(C)(=O)=O)cn3)CC2)CC1 [Compound 28, isopropyl 4-((1r,4r)-4-(5-(methylsulfonyl)pyrazin-2-yloxy)cyclohexyloxy)piperidine-1-carboxylate]
Male diabetic ZDF rats; 10 mg/kg p.o. 1 h prior to glucose bolus (3 g/kg)
  % Inhibition of Glucose Excursion (dose: mg/kg): 54.7% (10)
Male diabetic ZDF rats; 30 mg/kg p.o. 1 h prior to glucose bolus (3 g/kg)
  % Inhibition of Glucose Excursion (dose: mg/kg): 76.5% (30)
Male diabetic ZDF rats; diabetic ZDF rats
  blood glucose after challenge with glucose: lowered blood glucose
Male 129SVE mice
  blood glucose after challenge with glucose: lowered blood glucose
Male 129SVE mice; 1 mg/kg p.o. 30 minutes prior to glucose bolus (3 g/kg)
  % Inhibition of Glucose Excursion: 24.9%
Male 129SVE mice; 3 mg/kg p.o. 30 minutes prior to glucose bolus (3 g/kg)
  % Inhibition of Glucose Excursion: 26.4%
Male 129SVE mice; 10 mg/kg p.o. 30 minutes prior to glucose bolus (3 g/kg)
  % Inhibition of Glucose Excursion: 35.7%
Incretin hormone GIP
  Total GIP, pg/mL (dose, mg/kg): 468.1 pg/mL

## CC(C)c1noc(C2CCN(c3ncnc(Nc4ccc(S(C)(=O)=O)cc4F)c3[N+](=O)[O-])CC2)n1 [Compound B111, (2-Fluoro-4-methanesulfonyl-phenyl)-{6-[4-(3-isopropyl-[1,2,4]oxadiazol-5-yl)-piperidin-1-yl]-5-nitro-pyrimidin-4-yl}-amine]
GPR119
  glucose tolerance: improved glucose tolerance to a significantly greater degree than either agent alone
  plasma GLP-1 levels: acutely increased plasma GLP-1 levels

## N[C@@H](CC(=O)N1CCn2c(nnc2C(F)(F)F)C1)Cc1cc(F)c(F)cc1F [sitagliptin, 3(R)-amino-1-[3-(trifluoromethyl)-5,6,7,8-tetrahydro[1,2,4]triazolo[4,3-a]pyrazin-7-yl]-4-(2,4,5-trifluorophenyl)butan-1-one]
[1]
  fasting glucose, postprandial glucose excursion and HbA1c levels: reduce fasting glucose and postprandial glucose excursion in association with significantly reduced HbA1c levels

## N#C[C@@H]1CCCN1C(=O)CNC12CC3CC(CC(O)(C3)C1)C2 [vildagliptin, 1-[2-(3-hydroxyadamant-1-ylamino)acetyl]pyrrolidine-2(S)-carbonitrile]
[1]
  fasting glucose, postprandial glucose excursion and HbA1c levels: reduce fasting glucose and postprandial glucose excursion in association with significantly reduced HbA1c levels

## PYY3-36: generated from PYY1-36 by cleavage of the N-terminal Tyr and Pro residues by dipeptidyl peptidase IV; Y2R selective agonist
humans; human studies, infusion, over 24 hours
  reduction of food intake: 33%
humans; human, after infusion
  time of decline to basal levels: ≤ 30 min
humans; human, infusion to reach normal postprandial circulatory concentrations
  time to peak serum levels of PYY3-36: ≤ 15 min
